Source: ChEMBL document CHEMBL6134843, “HDAC11 Inhibition as a Potential Therapeutic Strategy for AML: Target Identification, Lead Discovery, Antitumor Potency, and Mechanism Investigation” (J Med Chem, 2025)
The source made the active and inactive calls. The calls are words filed in the database; no cut-off is given here.

Experiments:
[1] = biological target: T1, Histone deacetylase 11 (Homo sapiens, UniProt Q96DB2); test: Inhibition of full length human recombinant HDAC11 (1 to 347 end residues) expressed in Sf9 cells using AcetylETDKmyr-AMC as substrate preincubated with enzyme for 1 hr followed by substrate addition and measured after 30 mins by fluorescence analysis
T1 sequence (Q96DB2 whole entry): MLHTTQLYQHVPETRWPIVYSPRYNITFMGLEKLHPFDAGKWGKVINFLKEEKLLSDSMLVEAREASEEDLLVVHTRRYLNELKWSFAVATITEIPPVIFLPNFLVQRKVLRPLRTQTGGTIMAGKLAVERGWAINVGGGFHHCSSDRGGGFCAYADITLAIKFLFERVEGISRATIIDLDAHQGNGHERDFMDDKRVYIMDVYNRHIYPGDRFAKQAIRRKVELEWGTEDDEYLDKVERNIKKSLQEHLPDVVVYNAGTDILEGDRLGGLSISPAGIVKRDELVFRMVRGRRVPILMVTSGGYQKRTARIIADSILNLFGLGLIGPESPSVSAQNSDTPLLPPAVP

[2] = biological target: T2, Protein deacetylase HDAC6 (Homo sapiens, UniProt Q9UBN7); test: Inhibition of N-terminal GST-tagged full length human recombinant HDAC6 (1 to 1215 end residues) expressed in Sf9 cells using Boc-Lys-(acetyl)-AMC as substrate preincubated with enzyme for 1 hr followed by substrate addition and measured after 30 mins by fluorescence analysis
T2 sequence (Q9UBN7 whole entry): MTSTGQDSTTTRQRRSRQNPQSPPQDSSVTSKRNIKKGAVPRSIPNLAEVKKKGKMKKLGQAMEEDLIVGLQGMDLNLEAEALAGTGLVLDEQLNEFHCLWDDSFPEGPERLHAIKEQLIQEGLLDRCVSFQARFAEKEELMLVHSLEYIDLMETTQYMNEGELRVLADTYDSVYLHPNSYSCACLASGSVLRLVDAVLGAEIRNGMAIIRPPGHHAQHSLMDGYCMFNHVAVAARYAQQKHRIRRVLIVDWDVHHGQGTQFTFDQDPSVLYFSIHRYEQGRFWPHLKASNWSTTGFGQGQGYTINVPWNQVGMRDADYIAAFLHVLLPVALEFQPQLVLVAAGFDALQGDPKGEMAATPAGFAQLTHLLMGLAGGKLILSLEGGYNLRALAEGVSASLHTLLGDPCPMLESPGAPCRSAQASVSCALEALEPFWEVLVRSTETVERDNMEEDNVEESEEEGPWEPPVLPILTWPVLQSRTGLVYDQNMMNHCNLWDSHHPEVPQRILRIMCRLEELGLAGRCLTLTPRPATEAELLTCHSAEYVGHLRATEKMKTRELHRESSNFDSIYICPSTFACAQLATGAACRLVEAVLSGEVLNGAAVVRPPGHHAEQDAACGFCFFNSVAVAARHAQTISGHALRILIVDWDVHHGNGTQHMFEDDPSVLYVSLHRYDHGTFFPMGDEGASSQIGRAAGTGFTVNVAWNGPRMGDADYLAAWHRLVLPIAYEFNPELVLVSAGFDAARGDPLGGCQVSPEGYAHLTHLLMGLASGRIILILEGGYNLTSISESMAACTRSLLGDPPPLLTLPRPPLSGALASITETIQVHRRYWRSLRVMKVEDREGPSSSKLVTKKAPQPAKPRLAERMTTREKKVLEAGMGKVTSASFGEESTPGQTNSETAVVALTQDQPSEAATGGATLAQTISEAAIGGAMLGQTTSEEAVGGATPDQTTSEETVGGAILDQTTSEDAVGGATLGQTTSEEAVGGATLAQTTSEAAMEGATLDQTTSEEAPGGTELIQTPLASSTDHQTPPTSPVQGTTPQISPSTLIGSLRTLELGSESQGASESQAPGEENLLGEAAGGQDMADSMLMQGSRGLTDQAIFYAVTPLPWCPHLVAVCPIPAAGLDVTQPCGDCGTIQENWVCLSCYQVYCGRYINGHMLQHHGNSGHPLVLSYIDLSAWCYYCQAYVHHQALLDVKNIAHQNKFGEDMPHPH

[3] = biological target: Histone deacetylase 1 (Homo sapiens, UniProt Q13547); test: Inhibition of C-terminal 6xHis/FLAG-tagged full length human recombinant HDAC1 (1 to 482 end residues) expressed in Sf9 cells using Boc-Lys-(acetyl)-AMC as substrate preincubated with enzyme for 1 hr followed by substrate addition and measured after 30 mins by fluorescence analysis
[4] = biological target: Histone deacetylase 4 (Homo sapiens, UniProt P56524); test: Inhibition of N-terminal GST-tagged C-terminal His-tagged human HDAC4 (627 to 1084 end residues) expressed in baculovirus expression system in Sf9 cells using Boc-Lys-(trifluoroacetyl)-AMC as substrate preincubated with enzyme for 1 hr followed by substrate addition and measured after 30 mins by fluorescence analysis
[5] = biological target: T3, Histone deacetylase 8 (Homo sapiens, UniProt Q9BY41); test: Inhibition of C-terminal His-tagged full length human recombinant HDAC8 (1 to 377 end residues) expressed in Sf9 cells using Boc-Lys-(trifluoroacetyl)-AMC as substrate preincubated with enzyme for 1 hr followed by substrate addition and measured after 30 mins by fluorescence analysis
T3 sequence (Q9BY41 whole entry): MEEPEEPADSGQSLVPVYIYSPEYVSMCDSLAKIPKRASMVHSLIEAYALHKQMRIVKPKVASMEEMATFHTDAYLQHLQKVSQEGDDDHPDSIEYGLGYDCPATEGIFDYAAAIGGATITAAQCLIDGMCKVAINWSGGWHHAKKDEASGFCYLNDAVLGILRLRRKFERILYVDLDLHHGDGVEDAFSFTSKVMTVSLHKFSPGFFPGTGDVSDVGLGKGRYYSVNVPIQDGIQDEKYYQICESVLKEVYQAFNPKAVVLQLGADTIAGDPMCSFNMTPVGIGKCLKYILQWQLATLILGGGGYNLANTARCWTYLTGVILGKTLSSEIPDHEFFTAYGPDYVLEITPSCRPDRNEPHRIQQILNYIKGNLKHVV

[6] = tested on: U-937; test: Antitumor activity against human U-937 cells assessed as cell growth inhibition incubated for 2 days by CCK-8 assay; details: U-937, 48 h
[7] = tested on: OCI-AML2; test: Antiproliferative activity against human OCI-AML2 cells assessed as cell growth inhibition incubated for 2 days by CCK-8 assay; details: OCI-AML2, 48 h
[8] = biological target: T4, Histone deacetylase 11 (Homo sapiens) (UniProt Q96DB2); test: Inhibition of HDAC11 in human U-937 cells assessed as increase in SHMT2 fatty acylation level in presence of Alk14 at 100 uM incubated for 6 hrs by Western blot analysis; type: cell-based
T4 sequence (whole entry): T1 sequence (Q96DB2 whole entry)

[9] = tested on: OCI-AML-3; test: Induction of cell apoptosis in human OCI-AML-3 cells at 100 uM incubated for 48 hrs by Annexin V/DAPI staining based flow cytometry analysis; type: functional
[10] = tested on: THP-1; test: Induction of cell apoptosis in human THP-1 cells at 100 uM incubated for 48 hrs by Annexin V/DAPI staining based flow cytometry analysis; type: functional
[11] = tested on: U-937; test: Induction of ferroptosis in human U-937 cells assessed as increase in lipid peroxidation accumulation at 100 uM incubated for 48 hrs by C11-BODIPY 581/591 staining based flow cytometry analysis; type: functional, cell-based
[12] = tested on: U-937; test: Induction of ferroptosis in human U-937 cells assessed as increase in ferrous ion accumulation at 5 uM incubated for 48 hrs by RhoNox-1 staining based flow cytometry analysis; type: functional, cell-based
[13] = tested on: U-937; test: Induction of ferroptosis in human U-937 cells assessed as increase in ferrous ion accumulation at 100 uM incubated for 48 hrs by RhoNox-1 staining based flow cytometry analysis; type: functional, cell-based
[14] = tested on: OCI-AML2; test: Induction of ferroptosis in human OCI-AML2 cells assessed as increase in ferrous ion accumulation at 5 uM incubated for 48 hrs by RhoNox-1 staining based flow cytometry analysis; type: functional, cell-based
[15] = tested on: OCI-AML2; test: Induction of ferroptosis in human OCI-AML2 cells assessed as increase in ferrous ion accumulation at 100 uM incubated for 48 hrs by RhoNox-1 staining based flow cytometry analysis; type: functional, cell-based
[16] = Antitumor activity against mouse MLL-AF9 cells allografted in female C57BL/6 mouse model assessed as GFP positive leukemic cells in peripheral blood at 50 mg/kg, ip administered once daily for 26 days by FITC staining based analysis (reference value: 30.6 %); type: functional; details: time 26 day
[17] = Antitumor activity against mouse MLL-AF9 cells allografted in female C57BL/6 mouse model assessed as GFP positive leukemic cells in peripheral blood at 50 mg/kg, ip administered once daily for 32 days by FITC staining based analysis (reference value: 72.5 %); type: functional; details: time 32 day

Chain of Histone deacetylase 4 (P56524 whole entry): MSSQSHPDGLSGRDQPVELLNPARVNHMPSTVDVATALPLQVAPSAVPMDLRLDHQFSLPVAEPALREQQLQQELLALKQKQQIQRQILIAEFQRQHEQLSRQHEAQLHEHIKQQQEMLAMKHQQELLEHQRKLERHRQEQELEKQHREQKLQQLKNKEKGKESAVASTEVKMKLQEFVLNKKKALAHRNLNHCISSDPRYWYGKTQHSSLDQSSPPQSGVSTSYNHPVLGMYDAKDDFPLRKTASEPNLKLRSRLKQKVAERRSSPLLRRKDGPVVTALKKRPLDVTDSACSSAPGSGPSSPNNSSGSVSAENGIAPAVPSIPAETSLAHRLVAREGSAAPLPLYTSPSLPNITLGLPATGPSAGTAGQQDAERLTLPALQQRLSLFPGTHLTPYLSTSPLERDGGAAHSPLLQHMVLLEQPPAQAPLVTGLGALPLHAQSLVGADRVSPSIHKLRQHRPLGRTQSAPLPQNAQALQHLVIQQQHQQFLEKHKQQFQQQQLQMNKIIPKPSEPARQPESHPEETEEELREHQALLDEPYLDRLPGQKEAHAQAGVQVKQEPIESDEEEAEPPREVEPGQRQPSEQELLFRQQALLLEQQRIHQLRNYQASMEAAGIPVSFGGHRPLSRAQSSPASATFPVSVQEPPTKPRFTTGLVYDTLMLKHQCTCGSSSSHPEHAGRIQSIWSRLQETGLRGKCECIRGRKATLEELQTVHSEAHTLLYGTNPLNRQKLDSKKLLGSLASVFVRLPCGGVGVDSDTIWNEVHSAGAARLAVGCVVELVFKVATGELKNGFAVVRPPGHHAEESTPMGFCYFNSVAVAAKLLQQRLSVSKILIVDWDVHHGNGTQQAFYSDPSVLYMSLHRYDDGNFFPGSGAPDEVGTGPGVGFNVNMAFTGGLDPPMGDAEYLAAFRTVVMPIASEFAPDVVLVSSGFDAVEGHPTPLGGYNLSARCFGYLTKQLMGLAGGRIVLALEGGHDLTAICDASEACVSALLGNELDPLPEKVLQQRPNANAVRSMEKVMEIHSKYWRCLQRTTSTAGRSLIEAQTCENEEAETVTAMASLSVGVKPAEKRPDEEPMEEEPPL
Chain of Histone deacetylase 1 (Q13547 whole entry): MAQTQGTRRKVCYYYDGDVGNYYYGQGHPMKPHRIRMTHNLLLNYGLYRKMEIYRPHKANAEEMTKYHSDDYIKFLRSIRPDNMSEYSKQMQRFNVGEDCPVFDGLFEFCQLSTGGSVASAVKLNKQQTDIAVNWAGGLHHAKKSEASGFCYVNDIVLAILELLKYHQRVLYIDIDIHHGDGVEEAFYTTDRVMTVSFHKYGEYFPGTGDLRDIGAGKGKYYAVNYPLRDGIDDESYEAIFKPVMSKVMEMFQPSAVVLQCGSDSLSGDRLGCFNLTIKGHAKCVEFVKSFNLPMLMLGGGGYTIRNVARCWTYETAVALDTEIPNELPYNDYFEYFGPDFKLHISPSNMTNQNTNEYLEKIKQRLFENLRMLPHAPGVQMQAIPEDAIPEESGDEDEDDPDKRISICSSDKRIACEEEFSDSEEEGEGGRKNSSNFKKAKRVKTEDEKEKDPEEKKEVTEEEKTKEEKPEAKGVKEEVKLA

| Structure (SMILES) | IC50 [1] | IC50 [2] | IC50 [3] | IC50 [4] | IC50 [5] | IC50 [6] | IC50 [7] | inhibition [8] | Activity [9] | Activity [10] | Activity [11] | Activity [12] | Activity [13] | Activity [14] | Activity [15] | Activity [16] | Activity [17] |
| --- | --- | --- | --- | --- | --- | --- | --- | --- | --- | --- | --- | --- | --- | --- | --- | --- | --- |
| CCCCCCCCCCCCCCCCNNC(=O)c1cccs1 | 0.37 µM | 77.6 µM | 92.5 µM | > 100 µM | > 100 µM | ~150 µM | ~150 µM | Active | Active | Active | Active | Active | Active | Active | Active |  |  |
| Nc1ccn([C@@H]2O[C@H](CO)[C@@H](O)[C@@H]2O)c(=O)n1 [CYTARABINE] |  |  |  |  |  |  |  |  |  |  |  |  |  |  |  | 5.81% | 13.2% |
| O=C(NO)c1cccc2[nH]c(C#Cc3ccccc3)cc12 |  |  |  | > 100 µM |  |  |  |  |  |  |  |  |  |  |  |  |  |
